Results as given in ChEMBL document CHEMBL1201862, “PubChem BioAssay data set” (2004).
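Compound exposure: 48 hours, 5 concentrations, 96-well plates. Abbreviation: GI50, concentration required for 50% inhibition of growth.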 Active and inactive are the calls of the source. No stated cut-off is given here; in the data, active = GI50 up to about 1.1 µM and inactive = higher.

Assays:
Test in all cases: inhibition of tumour cell growth, NCI panel, 48 h
NCI-H226 = tested on: NCI-H226
UACC-257 = tested on: UACC-257
IGROV-1 = tested on: IGROV-1
SK-OV-3 = tested on: SK-OV-3
HL-60 = tested on: HL-60
SK-MEL-2 = tested on: SK-MEL-2
MOLT-4 = tested on: MOLT-4
UACC-62 = tested on: UACC-62
HCC 2998 = tested on: HCC 2998
M14 = tested on: M14
OVCAR-4 = tested on: OVCAR-4
SK-MEL-28 = tested on: SK-MEL-28
Malme-3M = tested on: Malme-3M
CAKI-1 = tested on: CAKI-1
RPMI-8226 = tested on: RPMI-8226
OVCAR-3 = tested on: OVCAR-3
EKVX = tested on: EKVX
HT-29 = tested on: HT-29
NCI-H23 = tested on: NCI-H23

Measured: GI50

CC(C)O/C=C1\C(=O)C2(SCCS2)[C@H]2CCCC[C@@H]12
inactive: NCI-H226 84.1 µM | UACC-257 42.6 µM | IGROV-1 49.7 µM | SK-OV-3 59.7 µM | HL-60 24.2 µM | SK-MEL-2 34.8 µM | MOLT-4 16.2 µM | UACC-62 20.9 µM | HCC 2998 66.4 µM | M14 42.6 µM | OVCAR-4 48.9 µM | SK-MEL-28 > 100 µM | Malme-3M 32.7 µM | CAKI-1 29.2 µM | RPMI-8226 25.4 µM

N#CC1(CCCI)CCCC1
inactive: OVCAR-3 16 µM | EKVX 47.4 µM | UACC-257 22.6 µM | IGROV-1 > 100 µM | SK-OV-3 64.4 µM | HL-60 6.1 µM | SK-MEL-2 15.9 µM | MOLT-4 13.8 µM | HT-29 15.2 µM | UACC-62 11 µM | HCC 2998 33.7 µM | M14 5.83 µM | NCI-H23 9.79 µM | SK-MEL-28 16.5 µM | Malme-3M 18.8 µM

CCN(CC)CCCC(C)Nc1cc(-c2ccccc2)nc2cc(OC)ccc12 (stereo not given)
inactive: OVCAR-3 12.2 µM | UACC-257 17.4 µM | IGROV-1 13.2 µM | SK-OV-3 16.3 µM | HL-60 2.55 µM | SK-MEL-2 12.6 µM | MOLT-4 2.14 µM | HT-29 1.94 µM | UACC-62 17.6 µM | HCC 2998 1.15 µM | M14 1.84 µM | OVCAR-4 4.88 µM | NCI-H23 15.4 µM | SK-MEL-28 6.22 µM | Malme-3M 10.4 µM | RPMI-8226 2.07 µM

O=C(CN1C(=O)c2ccccc2C1=O)OC1C=CCCC1 (stereo not given)
inactive: NCI-H226 > 100 µM | EKVX > 100 µM | UACC-257 > 100 µM | IGROV-1 > 100 µM | SK-OV-3 > 100 µM | HL-60 > 100 µM | SK-MEL-2 > 100 µM | MOLT-4 > 100 µM | UACC-62 > 100 µM | HCC 2998 > 100 µM | M14 > 100 µM | OVCAR-4 > 100 µM | SK-MEL-28 > 100 µM | Malme-3M > 100 µM | CAKI-1 > 100 µM | RPMI-8226 > 100 µM

CCOC(=O)Nc1ccc(S(=O)(=O)NCCCl)cc1.CCOC(=O)Nc1ccc(S(=O)(=O)NCCCl)cc1.O=C(O)c1ccc(/N=N/Cl)cc1O
inactive: OVCAR-3 > 100 µM | NCI-H226 > 100 µM | EKVX > 100 µM | UACC-257 > 100 µM | IGROV-1 > 100 µM | SK-OV-3 > 100 µM | HL-60 > 100 µM | SK-MEL-2 > 100 µM | MOLT-4 > 100 µM | HT-29 > 100 µM | UACC-62 > 100 µM | HCC 2998 > 100 µM | M14 > 100 µM | OVCAR-4 > 100 µM | NCI-H23 > 100 µM | SK-MEL-28 > 100 µM | Malme-3M > 100 µM | CAKI-1 > 100 µM

CCC(C)(C)n1c(C)nc2c1C(=O)c1ccccc1C2=O
inactive: OVCAR-3 30.7 µM | NCI-H226 40.6 µM | EKVX 34.1 µM | UACC-257 33.5 µM | IGROV-1 34 µM | SK-OV-3 44.9 µM | HL-60 7.62 µM | SK-MEL-2 18.7 µM | MOLT-4 18.8 µM | HT-29 31.6 µM | UACC-62 13.5 µM | HCC 2998 45.8 µM | M14 42.5 µM | OVCAR-4 37.3 µM | NCI-H23 27.7 µM | SK-MEL-28 46.8 µM | Malme-3M 32.2 µM

O=C(NC(COC(=O)C(Cc1ccccc1)NC(=O)c1ccccc1)Cc1ccccc1)c1ccccc1 (stereo not given)
inactive: OVCAR-3 > 50 µM | EKVX > 50 µM | UACC-257 > 50 µM | IGROV-1 > 50 µM | SK-OV-3 > 50 µM | HL-60 > 50 µM | SK-MEL-2 > 50 µM | MOLT-4 > 50 µM | HT-29 > 50 µM | UACC-62 > 50 µM | HCC 2998 > 50 µM | M14 > 50 µM | OVCAR-4 > 50 µM | NCI-H23 > 50 µM | SK-MEL-28 > 50 µM | Malme-3M > 50 µM | RPMI-8226 > 50 µM

COc1ccc(NC(=O)CC/C(CC(=O)c2ccccc2Cl)=N\Nc2nnc(C)n2N)cc1
inactive: NCI-H226 > 100 µM | EKVX > 100 µM | UACC-257 > 100 µM | IGROV-1 > 100 µM | SK-OV-3 > 100 µM | HL-60 > 100 µM | SK-MEL-2 > 100 µM | MOLT-4 > 100 µM | HT-29 > 100 µM | UACC-62 > 100 µM | HCC 2998 > 100 µM | OVCAR-4 > 100 µM | NCI-H23 > 100 µM | SK-MEL-28 > 100 µM | Malme-3M > 100 µM | CAKI-1 > 100 µM
